Drawing on patent US8680275B2, “Fused heterocyclic compounds as orexin receptor modulators” (Janssen Pharmaceutica NV, priority 2009, dated 2014), this text covers Ki for ten compounds.

Assay [1] addresses human orexin-2 receptor (Homo sapiens (Human), UniProt O43614). The experiment in a line: Human orexin 2 receptor radioligand binding ([3H]-EMPA competition). The following applies: HEK293 cells stably expressing human orexin-2 receptor; [3H]-EMPA 5 nM final; read-out: OR-2 Ki. The method, then:
(§1) The in vitro affinity of the compounds for the human orexin-1 and orexin-2 receptors was determined by competitive radioligand binding using [^3H]SB SB674042 (1-(5-(2-fluoro-phenyl)-2-methyl-thiazol-4-yl)-1-((S)-2-(5-phenyl-(1,3,4)oxadiazol-2-ylmethyl)-pyrrolidin-1-yl)methanone) (Langmead et al., British Journal of Pharmacology 2004, 141:340-346.) and [^3H]EMPA (N-ethyl-2[(6-methoxy-pyridin-3-yl)-(toluene-2-sulfonyl)-amino]-N-pyridin-3-ylmethyl acetamide) (Malherbe et al., British Journal of Pharmacology, 2009, 156(8), 1326-1341), respectively.
Human Orexin 2 Receptor Radioligand Binding Studies
HEK293 stably expressing human orexin-2 receptor (Genebank accession number NM_001526) were grown to confluency in DMEM/F12 (Gibco, Cat #11039), in DMEM, 10% FBS, 1× Pen/Strep, 1× NaPyruvate, 1×HEPES, 600 ug/ml G418 media on 150 cm^2 tissue culture plates, washed with 5 mM EDTA in PBS (HyClone Dulbecco's Phosphate Buffered Saline 1× with Calcium and Magnesium, Cat #SH30264.01, hereafter referred to simply as PBS) and scraped into 50 ml tubes. After centrifugation (2K xG, 10 min at 4° C.), the supernatant was aspirated and the pellets frozen and stored at −80° C. Cells were resuspended in PBS in the presence of 1 tablet of protease inhibitor cocktail (Roche, Cat. #11836145001) per 50 mL. […] Competition binding experiments in 96 well polypropylene plates were performed using [^3H]-EMPA (Moravek Corporation, specific activity=27 Ci/mmol), diluted to a […] concentration in PBS (5 nM final concentration). Compounds were solubilized in 100% DMSO (Acros Organics, Cat. #61042-1000) and tested over a range of 7 concentrations (from 0.1 nM to 10 μM). The final concentration of DMSO in the reactions is equal to or less than 0.1%. Total and nonspecific binding was determined in the absence and presence of 10 μM (N-[2-(3,4-dimethoxyphenyl)ethyl]-N-methylnaphthalene-1-carboxamide, CAS Registry #1089563-88-1). The total volume of each reaction is 200 μL (20 μL of diluted compounds, 80 μL of [^3H]-EMPA diluted in PBS and 100 μL of the cell suspension). Reactions were run for 60 min at room temperature and terminated by filtration through GF/C filter plates (PerkinElmer, Cat. #6005174) presoaked in 0.3% polyethylenimine using the cell harvester (Perkin Elmer Filtermate). The plates were washed 3 times by aspirating 30 ml PBS through the plates. Plates were dried in 55° C. oven for 60 min, scintillation fluid was added, and the radioactivity was counted on a Topcount (Packard).

Assay [2] has as its target human orexin 1 receptor (Homo sapiens (Human), UniProt O43613). The experiment in a line: Human orexin 1 receptor radioligand binding ([3H]-SB674042 competition). The note with it: CHO cells stably expressing human orexin 1 receptor; [3H]-SB674042 4 nM final; read-out: OR-1 Ki. The method, then:
as §1
Human Orexin 1 Receptor Radioligand Binding Studies
Chinese ovary cells (CHO) stably expressing human orexin 1 receptor (Genebank accession number NM_001526) were grown to confluency in DMEM/F12 (Gibco, Cat #11039), 10% FBS, 1× Pen/Strep, 600 μg/mL G418 media on 150 cm^2 tissue culture plates, washed with 5 mM EDTA in PBS (HyClone Dulbecco's Phoshpate Buffered Saline 1× with Calcium and Magnesium, Cat #SH30264.01, hereafter referred to simply as PBS) and scraped into 50 ml tubes. After centrifugation (2K xG, 10 min at 4° C.), the supernatant was aspirated and the pellets frozen and stored at −80° C. Cells were resuspended in PBS in the presence of 1 tablet of protease inhibitor cocktail (Roche, Cat. #11836145001) per 50 mL. […] Compounds were solubilized in 100% DMSO (Acros Organics, Cat. #61042-1000) and tested over a range of 7 concentrations (from 0.1 nM to 10 μM). The final concentration of DMSO in the reactions is equal to or less than 0.1%. Total and nonspecific binding was determined in the absence and presence of 10 μM (1-(6,8-difluoro-2-methylquinolin-4-yl)-3-[4-(dimethylamino)phenyl]urea, CAS Registry #288150-92-5). The total volume of each reaction is 200 μL (20 μL of diluted compounds, 80 μL of [^3H]-SB674042 diluted in PBS and 100 μL of the cell suspension). Reactions were run for 60 min at room temperature and terminated by filtration through GF/C filter plates (PerkinElmer, Cat. #6005174) presoaked in 0.3% polyethylenimine using the cell harvester (PerkinElmer Filtermate). The plates were washed 3 times by aspirating 30 ml PBS through the plates. Plates were dried in 55° C. oven for 60 min, scintillation fluid was added, and the radioactivity was counted on a Topcount (Packard).

human orexin 1 receptor, sequence (O43613 whole entry): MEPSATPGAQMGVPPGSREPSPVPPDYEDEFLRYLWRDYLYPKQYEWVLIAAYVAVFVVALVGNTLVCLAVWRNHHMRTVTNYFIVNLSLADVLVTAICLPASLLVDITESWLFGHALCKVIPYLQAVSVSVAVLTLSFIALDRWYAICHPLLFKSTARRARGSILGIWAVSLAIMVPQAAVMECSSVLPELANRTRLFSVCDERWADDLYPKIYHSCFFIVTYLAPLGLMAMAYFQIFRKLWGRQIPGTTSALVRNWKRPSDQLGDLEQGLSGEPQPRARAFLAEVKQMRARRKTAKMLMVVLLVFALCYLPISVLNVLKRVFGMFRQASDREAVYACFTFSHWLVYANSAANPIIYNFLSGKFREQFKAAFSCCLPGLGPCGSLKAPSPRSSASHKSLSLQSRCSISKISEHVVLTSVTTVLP
human orexin-2 receptor, sequence (O43614 whole entry): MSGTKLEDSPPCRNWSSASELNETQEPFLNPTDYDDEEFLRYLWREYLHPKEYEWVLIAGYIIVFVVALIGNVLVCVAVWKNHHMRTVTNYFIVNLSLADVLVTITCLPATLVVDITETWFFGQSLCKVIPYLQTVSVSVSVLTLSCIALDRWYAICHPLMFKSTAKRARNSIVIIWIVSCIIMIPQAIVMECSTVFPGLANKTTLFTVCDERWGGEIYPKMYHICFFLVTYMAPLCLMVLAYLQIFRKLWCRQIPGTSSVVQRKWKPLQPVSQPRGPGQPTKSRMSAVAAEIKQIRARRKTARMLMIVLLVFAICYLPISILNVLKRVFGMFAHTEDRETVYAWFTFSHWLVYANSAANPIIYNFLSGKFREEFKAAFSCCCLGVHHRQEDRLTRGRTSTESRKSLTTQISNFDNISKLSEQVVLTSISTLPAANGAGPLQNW

For the compound `Cc1ccc(-n2nccn2)c(C(=O)N2CC[C@H]3CN(c4nc(C)cc(C)n4)[C@H]3C2)c1` [Example 26, (1R,6S)-[8-(4,6-Dimethyl-pyrimidin-2-yl)-3,8-diaza-bicyclo[4.2.0]oct-3-yl]-(5-methyl-2-[1,2,3]triazol-2-yl-phenyl)-methanone], the Ki in assay [1] came to 13 nM; in assay [2] it was 52 nM.

`Cc1ccc(-c2ncccn2)c(C(=O)N2CC[C@H]3CN(c4nc(C)cc(C)n4)[C@H]3C2)c1` [Example 27, (1R,6S)-[8-(4,6-Dimethyl-pyrimidin-2-yl)-3,8-diaza-bicyclo[4.2.0]oct-3-yl]-(5-methyl-2-pyrimidin-2-yl-phenyl)-methanone]: the Ki was 28 nM in assay [1] and 143 nM in assay [2].

`Cc1cc(C)nc(N2C[C@@H]3CCN(C(=O)c4ccccc4-c4ncccn4)C[C@@H]32)n1` [Example 28, (1R,6S)-[8-(4,6-Dimethyl-pyrimidin-2-yl)-3,8-diaza-bicyclo[4.2.0]oct-3-yl]-(2-pyrimidin-2-yl-phenyl)-methanone]: the inhibitory constant (Ki) in assay [1] came to 21 nM; in assay [2], 330 nM.

Turning to `Cc1cc(C)nc(N2C[C@@H]3CCN(C(=O)c4c(F)cccc4-n4nccn4)C[C@@H]32)n1` [Example 29, (1R,6S)-[8-(4,6-Dimethyl-pyrimidin-2-yl)-3,8-diaza-bicyclo[4.2.0]oct-3-yl]-(2-fluoro-6-[1,2,3]triazol-2-yl-phenyl)-methanone], the inhibition constant (Ki) amounted to 11 nM in assay [1] and 325 nM in assay [2].

For the compound `Cc1cc(C)nc(N2C[C@@H]3CCN(C(=O)c4ccc(F)cc4-n4nccn4)C[C@@H]32)n1` [Example 30, (1R,6S)-[8-(4,6-Dimethyl-pyrimidin-2-yl)-3,8-diaza-bicyclo[4.2.0]oct-3-yl]-(4-fluoro-2-[1,2,3]triazol-2-yl-phenyl)-methanone], the values for the Ki in assay [1] and in assay [2] were 13 nM and 978 nM, respectively.

As for `Cc1cnc(C)c(N2C[C@@H]3CCN(C(=O)c4ccc(F)cc4-n4nccn4)C[C@@H]32)n1` [Example 31, (1R,6S)-[8-(3,6-Dimethyl-pyrazin-2-yl)-3,8-diaza-bicyclo[4.2.0]oct-3-yl]-(4-fluoro-2-[1,2,3]triazol-2-yl-phenyl)-methanone], the inhibition constant (Ki) in assay [1] is 81 nM; in assay [2], at least 10000 nM.

With `Cc1cc(N2C[C@@H]3CCN(C(=O)c4c(F)cccc4-n4nccn4)C[C@@H]32)nc(C(F)(F)F)n1` [Example 32, (1R,6S)-(2-Fluoro-6-[1,2,3]triazol-2-yl-phenyl)-[8-(6-methyl-2-trifluoromethyl-pyrimidin-4-yl)-3,8-diaza-bicyclo[4.2.0]oct-3-yl]-methanone], the Ki in assay [1] was found to be 13 nM; in assay [2], 134 nM.

As for `Cc1cc(N2C[C@@H]3CCN(C(=O)c4ccc(F)cc4-n4nccn4)C[C@@H]32)nc(C(F)(F)F)n1` [Example 34, (1R,6S)-(4-Fluoro-2-[1,2,3]triazol-2-yl-phenyl)-[8-(6-methyl-2-trifluoromethyl-pyrimidin-4-yl)-3,8-diaza-bicyclo[4.2.0]oct-3-yl]-methanone], the results for the inhibition constant Ki in assay [1] and in assay [2] were 50 nM and 1040 nM, respectively.

`Cc1cc(N2C[C@@H]3CCN(C(=O)c4ccccc4-n4nccn4)C[C@@H]32)nc(C(F)(F)F)n1` [Example 35, (1R,6S)-[8-(6-Methyl-2-trifluoromethyl-pyrimidin-4-yl)-3,8-diaza-bicyclo[4.2.0]oct-3-yl]-(2-[1,2,3]triazol-2-yl-phenyl)-methanone]: the inhibitory constant (Ki) in assay [1] is 24 nM; in assay [2], 117 nM.

For the compound `CN(C)c1nc(N2C[C@@H]3CCN(C(=O)c4ccccc4-n4nccn4)C[C@@H]32)cc(C(F)(F)F)n1` [Example 36, (1R,6S)-[8-(2-Dimethylamino-6-trifluoromethyl-pyrimidin-4-yl)-3,8-diaza-bicyclo[4.2.0]oct-3-yl]-(2-[1,2,3]triazol-2-yl-phenyl)-methanone], the Ki in assay [1] was 5 nM; in assay [2], 11 nM.

The term Ki denotes the dissociation constant of the complex between target and ligand, obtained from inhibition or displacement.
